Experiment [1] addresses T1, human P2X3 receptor (homomeric P2X3 channels) (Homo sapiens, UniProt P56373).
T1 construct: expressed in transfected cells; host or cells: HEK293 human embryonic kidney cells (HEK-hP2X3)
T1 sequence (P56373 1-397): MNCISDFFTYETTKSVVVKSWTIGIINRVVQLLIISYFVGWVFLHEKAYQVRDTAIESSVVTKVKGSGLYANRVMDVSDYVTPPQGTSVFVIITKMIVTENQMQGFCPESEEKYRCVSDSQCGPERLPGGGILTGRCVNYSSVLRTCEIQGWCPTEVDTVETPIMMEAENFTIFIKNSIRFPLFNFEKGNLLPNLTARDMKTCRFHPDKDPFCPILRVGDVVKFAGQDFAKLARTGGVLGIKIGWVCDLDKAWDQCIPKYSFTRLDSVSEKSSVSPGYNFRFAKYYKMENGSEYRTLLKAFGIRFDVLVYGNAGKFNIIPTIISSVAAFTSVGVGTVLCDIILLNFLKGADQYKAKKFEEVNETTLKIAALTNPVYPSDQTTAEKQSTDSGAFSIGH
Briefly: FlexStation calcium fluorescence assay, homomeric P2X3 channels (HEK-hP2X3 cells). Conditions: for IC50: HEK293 cells stably transfected with human P2X3, agonist 1 μM α,β-meATP, highest concentration tested 10 μM, read-out: Average pIC50 P2X3 (converted); for Selectivity P2X3/P2X2/3: potency ratio P2X3 over P2X2/3 from pIC50s; for Selectivity, X = S: potency ratio P2X3 over P2X2/3. The experiment is classed as cell-based. As for the experimental part: (§1) 1321N1 human astrocytoma and HEK293 human embryonic kidney cells were stably transfected with human P2X2 and P2X3 receptor subunits to form heteromeric P2X2/3 channels and passaged in flasks. Additionally, HEK293 cells were stably transfected with human P2X3 receptor subunits to form homomeric P2X3 channels.
(§2) Approximately 24 hours before the FlexStation calcium fluorescence experiment, cells were released from their flasks, centrifuged and re-suspended in nutrient medium. The cells were aliquoted into black-wall, clear-bottom 96 well plates at a density of 25,000 cells per well and incubated overnight in a humidified, CO2-enriched (5%) atmosphere at 37° C.
(§3) On the day of the experiment, cells were washed with assay buffer (calcium- and magnesium-free Hank's balanced salt solution, 20 mM HEPES, 2 mM CaCl2; AB) and loaded with 4 μM Fluo-4 (P2X2/3) or Calcium 6 (Molecular Devices, according to manufacturer's instructions; P2X3) calcium-sensitive fluorescent dye in 100 μL AB.
(§4) After 1 hour of dye loading at 37° C., 1321N1-hP2X2/3 cells were washed two times with AB and test compound or vehicle added to each well in a total volume of 150 μL AB. HEK-hP2X3 cells were not washed because the Calcium 6 dye kit includes an extracellular dye that quenches unabsorbed Calcium 6 dye; test compound or vehicle were added directly to the assay plates to achieve the appropriate concentration of test compound in a total volume of 150 μL AB.
(§5) After 20 minutes incubation at RT and protected from light, the assay plates were loaded into the FlexStation microplate reader and baseline fluorescence measured with an excitation wavelength of 485 nm and emission wavelength readings centered at 525 nm (515 nm cut off).
(§6) The agonist was dispensed by the FlexStation during fluorescence measurement to construct agonist activation and antagonist inhibition curves. The final agonist concentration for inhibition was 1 μM α,β-meATP for P2X3 and 3 μM ATP for P2X2/3. Peak fluorescence was measured and curves generated using a four parameter nonlinear regression equation.

The target of experiment [2] is T2, human P2X2/3 receptor (heteromeric P2X2/3 channels) (Homo sapiens, UniProt P56373+Q9UBL9).
T2 construct: expressed in transfected cells; host or cells: 1321N1 human astrocytoma cells (1321N1-hP2X2/3)
T2 sequence (P56373 1-397): T1 sequence (P56373 1-397)
T2 sequence (Q9UBL9 1-471): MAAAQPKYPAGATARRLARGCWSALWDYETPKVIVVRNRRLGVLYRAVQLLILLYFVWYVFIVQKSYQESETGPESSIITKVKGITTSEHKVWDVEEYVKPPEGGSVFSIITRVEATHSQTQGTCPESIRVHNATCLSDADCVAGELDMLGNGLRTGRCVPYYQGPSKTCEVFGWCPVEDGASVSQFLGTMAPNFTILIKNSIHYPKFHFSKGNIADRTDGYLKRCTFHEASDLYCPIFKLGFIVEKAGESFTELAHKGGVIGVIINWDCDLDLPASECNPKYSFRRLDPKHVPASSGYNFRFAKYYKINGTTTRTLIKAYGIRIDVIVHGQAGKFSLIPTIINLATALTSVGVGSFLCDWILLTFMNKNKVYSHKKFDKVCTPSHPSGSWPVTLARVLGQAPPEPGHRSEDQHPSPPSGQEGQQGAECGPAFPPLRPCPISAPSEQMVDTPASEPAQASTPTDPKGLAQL
As to the kind of experiment: FlexStation calcium fluorescence assay, heteromeric P2X2/3 channels (1321N1-hP2X2/3 cells). The class given is cell-based. Conditions: agonist 3 μM ATP, highest concentration tested 10 μM, read-out: Average pIC50 P2X2/3 (converted). The method, then:
as §1, §2, §3, §4, §5, §6

For the compound `COc1cc(C(C)C)c(Nc2cnc(N)nc2N)cc1S(C)(=O)=O` [Compound 37], the IC50 is 126 nM in experiment [1] and greater than 10000 nM in experiment [2]. Further, the “Selectivity P2X3/P2X2/3” value in experiment [1] is given as greater than 73. As for `COc1nc(C(C)C)c(Sc2cnc(N)nc2N)cc1C#N` [Compound 26], the results for the IC50 in experiment [1] and in experiment [2] were 7940 nM and greater than 10000 nM, respectively. Also, the “Selectivity P2X3/P2X2/3” value in experiment [1] is on record as greater than 1. As for `COc1cc(C(C)C)c(Sc2cnc(N)nc2N)cc1I` [Compound 4], the “Selectivity P2X3/P2X2/3” value in experiment [1] was 48. In the case of `COc1ccc(Oc2cnc(N)nc2N)c(C(C)C)n1` [Compound 14], the “Selectivity P2X3/P2X2/3” value in experiment [1] was greater than 7.1. With `COc1nc(C(C)C)c(Nc2cnc(N)nc2N)cc1C(F)(F)F` [Compound 35], in experiment [1], the IC50 is 39.8 nM and the “Selectivity P2X3/P2X2/3” value is on record as 198. In experiment [2], the IC50 was 7940 nM. Regarding `COc1cc(Oc2cnc(N)nc2N)c(C(C)C)nc1OC` [Compound 13], the “Selectivity P2X3/P2X2/3” value in experiment [1] is listed as 5.2. For `COc1nc(C(C)C)c(Sc2cnc(N)nc2N)cc1SC(F)(F)F` [Compound 31], the IC50 in experiment [1] was 3980 nM; in experiment [2], greater than 10000 nM. Also, the “Selectivity P2X3/P2X2/3” value in experiment [1] is greater than 2.5. The matching figures for `COc1nc(C(C)C)c(Nc2cnc(N)nc2N)cc1Cl` [Compound 32]: 10 nM, 398 nM and 34.

`COc1cc(C(C)C)c(Nc2cnc(N)nc2N)cc1Cl` [Compound 39]: in experiment [1], the IC50 is 25.1 nM and the “Selectivity P2X3/P2X2/3” value was found to be 208. In experiment [2], the IC50 was 5010 nM. As for `COc1nc(C(C)C)c(Sc2cnc(N)nc2N)cc1S(N)(=O)=O` [Compound 27], in experiment [1], the IC50 is 79.4 nM and the “Selectivity P2X3/P2X2/3” value stood at 7.3. Besides, the IC50 in experiment [2] was 631 nM. For `COc1nc(C(C)C)c(Oc2cnc(N)nc2N)cc1S(C)(=O)=O` [Compound 16], the “Selectivity P2X3/P2X2/3” value in experiment [1] was greater than 145. For `COc1cc(C(C)C)c(Sc2cnc(N)nc2N)cc1S(C)(=O)=O` [C, X = S], the “Selectivity, X = S” value in experiment [1] is recorded as greater than 18. For the compound `C#Cc1cc(Oc2cnc(N)nc2N)c(C(C)C)nc1OC` [Compound 19], in experiment [1], the “Selectivity P2X3/P2X2/3” value was determined as 28.

With `CCc1cc(OC)c(I)cc1Sc1cnc(N)nc1N` [Compound 21], in experiment [1], the IC50 was 398 nM and the “Selectivity P2X3/P2X2/3” value is on record as greater than 24. Further, the IC50 in experiment [2] is greater than 10000 nM. Consider `COc1nc(C(C)C)c(Oc2cnc(N)nc2N)cc1[S+](C)[O-]` (stereo not drawn) [Compound 42], for which, in experiment [1], the IC50 is 316 nM and the “Selectivity P2X3/P2X2/3” value is on record as greater than 33. The IC50 in experiment [2] is greater than 10000 nM. The matching figures for `COc1nc(C(C)C)c(Oc2cnc(N)nc2N)nc1N(C)C` [Compound 45]: 1580 nM, greater than 6.0 and greater than 10000 nM. The matching figures for `COc1cc(Nc2cnc(N)nc2N)c(C(C)C)nc1OC` [Compound 44]: 10 nM, 225 and 2000 nM. In the same order, the values of `C#Cc1cc(Sc2cnc(N)nc2N)c(C(C)C)nc1OC` [Compound 29] are 50.1 nM, 3.9 and 200 nM. In the case of `COc1ccc(Sc2cnc(N)nc2N)c(C(C)C)n1` [Compound 23], the IC50 in experiment [1] is 3980 nM; in experiment [2] it was greater than 10000 nM. Moreover, the “Selectivity P2X3/P2X2/3” value in experiment [1] is reported as greater than 3. In the same order, the values of `COc1nc(C(C)C)c(Sc2cnc(N)nc2N)cc1C(F)(F)F` [Compound 34] are 794 nM, 6310 nM and 8.3. As to `COc1cc(C(C)C)c(Sc2cnc(N)nc2N)cc1S(N)(=O)=O` [Compound 3], the “Selectivity P2X3/P2X2/3” value in experiment [1] was greater than 67. Still for that read-out and setting: for `CC#Cc1cc(Sc2cnc(N)nc2N)c(C(C)C)cc1OC` [Compound 6] the value was greater than 13. `COc1nc(C(C)C)c(Oc2cnc(N)nc2N)cc1SC` [Compound 41]: in experiment [1], the IC50 was 12.6 nM and the “Selectivity P2X3/P2X2/3” value was found to be 41. In addition, the IC50 in experiment [2] was 501 nM.

For `COc1nc(C(C)C)c(Oc2cnc(N)nc2N)cc1SC(F)(F)F` [Compound 47], in experiment [1], the IC50 is 631 nM and the “Selectivity P2X3/P2X2/3” value is given as 2.1. Also, the IC50 in experiment [2] is 1260 nM. Consider `C#Cc1cc(Sc2cnc(N)nc2N)c(C(C)C)cc1OC` [Compound 5], for which, in experiment [1], the “Selectivity P2X3/P2X2/3” value amounted to 97. On to `COc1cc(C(C)C)c(S(=O)(=O)c2cnc(N)nc2N)cc1OC` [Comparative Compound 2, reference compound], for which the IC50 in experiment [1] and in experiment [2] was greater than 10000 nM each time. For `COc1nc(C(C)C)c(Sc2cnc(N)nc2N)cc1Br` [Compound 24], in experiment [1], the IC50 is 100 nM and the “Selectivity P2X3/P2X2/3” value came out at 4. In addition, the IC50 in experiment [2] was 398 nM. For the compound `COc1nc(C(C)C)c(Oc2cnc(N)nc2N)cc1C(F)(F)F` [Compound 18], in experiment [1], the “Selectivity P2X3/P2X2/3” value turned out to be 23. Turning to `COc1cc(C(C)C)c(Sc2cnc(N)nc2N)cc1-c1nnn[nH]1` [Compound 11], the “Selectivity P2X3/P2X2/3” value in experiment [1] is given as greater than 58.

Consider `COc1nc(C(C)C)c(Oc2cnc(N)nc2N)nc1C(F)(F)F` [Compound 46], for which, in experiment [1], the IC50 is 100 nM and the “Selectivity P2X3/P2X2/3” value is recorded as 10. In addition, in experiment [2], the IC50 was 1000 nM. In the same order, the values of `COc1nc(C(C)C)c(Oc2cnc(N)nc2N)cc1Cl` [Compound 33] are 25.1 nM, 26 and 794 nM. In the case of `COc1cc(C(C)C)c(Sc2cnc(N)nc2N)cc1Cl` [Compound 9], the “Selectivity P2X3/P2X2/3” value in experiment [1] is on record as greater than 56. On to `COc1cc(C(C)C)c(Sc2cnc(N)nc2N)cc1I` [B, X = S], for which, in experiment [1], the “Selectivity, X = S” value came out at 48. For the compound `COc1cc(C(C)C)c(Sc2cnc(N)nc2N)cc1Cl` [D, X = S], the “Selectivity, X = S” value in experiment [1] is greater than 50. As for `COc1nc(C(C)C)c(Oc2cnc(N)nc2N)cc1S(C)(=N)=O` (stereo not drawn) [Compound 43], in experiment [1], the IC50 was 3160 nM and the “Selectivity P2X3/P2X2/3” value is reported as greater than 3.4. The IC50 in experiment [2] was greater than 10000 nM. In the case of `COc1cc(Sc2cnc(N)nc2N)c(C(C)C)cc1OC` [A, X = S], the “Selectivity, X = S” value in experiment [1] is greater than 100. For `COc1cc(C(C)C)c([S+]([O-])c2cnc(N)nc2N)cc1OC` (stereo not drawn) [Comparative Compound 1, reference compound], the IC50 in experiment [1] and in experiment [2] was greater than 10000 nM throughout.

In the case of `COc1cc(Sc2cnc(N)nc2N)c(C(C)C)cc1OC` [Compound 1], in experiment [1], the “Selectivity, X = S” value is recorded as “greater than 100” and the “Selectivity P2X3/P2X2/3” value is greater than 100. Turning to `COc1nc(C(C)C)c(Oc2cnc(N)nc2N)cc1S(N)(=O)=O` [Compound 20], the “Selectivity P2X3/P2X2/3” value in experiment [1] came to 19. `COc1cc(C(C)C)c(Sc2cnc(N)nc2N)cc1S(C)(=O)=O` [Compound 2]: the “Selectivity P2X3/P2X2/3” value in experiment [1] is recorded as greater than 18. Regarding `COc1nc(C(C)C)c(Oc2cnc(N)nc2N)cc1C#N` [Compound 17], in experiment [1], the “Selectivity P2X3/P2X2/3” value is greater than 10.

In the case of `COc1cc(C(C)C)c(Sc2cnc(N)nc2N)cc1C(=O)O` [Compound 12], in experiment [1], the “Selectivity P2X3/P2X2/3” value is recorded as greater than 2. With `COc1cc(C(C)C)c(Sc2cnc(N)nc2N)cc1Br` [Compound 8], the “Selectivity P2X3/P2X2/3” value in experiment [1] is greater than 47. With `COc1cc(C(C)C)c(Sc2cnc(N)nc2N)cc1C` [Compound 7], in experiment [1], the “Selectivity P2X3/P2X2/3” value is recorded as greater than 34.

The values are drawn from patent US11230532B2, “Pyrimidines and variants thereof, and uses therefor” (Afferent Pharmaceuticals Inc., priority 2016, dated 2022).
